In the NIST ThermoML archive (doi:10.1016/j.jct.2005.12.010):
“And” between values parts separate entries of the source, which are not always exact repeats. Equal values may be shown once.

How the values were obtained:
[1] = 101 kPa, Liquid
[2] = xn = mol fraction of the nth substance listed; conditions: 101 kPa, Liquid

CCO [ethanol]
[1]
Conditions | mass density [kg/m3] | speed of sound [m/s] | viscosity [mPa·s]
293.15 K | 789.75 | 1162 | 1.187
298.15 K | 785.46 | 1145 | 1.082
303.15 K | 781.15 | 1128 | 0.987

CCCC(C)O (stereo not drawn) [pentan-2-ol] + CC1CCCC1
[2], x2 = 0
Conditions | speed of sound [m/s]
293.15 K | 1250
298.15 K | 1232
303.15 K | 1214

CC1CCCC1 [methylcyclopentane] + CCCC(C)O
speed of sound [m/s], [2]
Conditions | 293.15 K | 298.15 K | 303.15 K
x1 = 0.0484 | 1244 | 1225 | 1206
x1 = 0.0999 | 1236 | 1217 | 1198
x1 = 0.1949 | 1223 | 1203 | 1183
x1 = 0.3177 | 1207 | 1187 | 1167
x1 = 0.4017 | 1198 | 1178 | 1157
x1 = 0.4945 | 1190 | 1169 | 1149
x1 = 0.6131 | 1184 | 1163 | 1141
x1 = 0.7107 | 1183 | 1161 | 1139
x1 = 0.815 | 1183 | 1161 | 1138
x1 = 0.9083 | 1187 | 1164 | 1141
x1 = 0.9535 | 1190 | 1167 | 1144
x1 = 1 | 1197 | 1174 | 1150

CC1CCCC1 [methylcyclopentane] + CCCO
speed of sound [m/s], [2]
Conditions | 293.15 K | 298.15 K | 303.15 K
x1 = 0.0475 | 1217 | 1199 | 1182
x1 = 0.0967 | 1211 | 1193 | 1175
x1 = 0.2055 | 1201 | 1182 | 1163
x1 = 0.2984 | 1195 | 1175 | 1155
x1 = 0.4014 | 1189 | 1169 | 1148
x1 = 0.5007 | 1185 | 1164 | 1142
x1 = 0.6133 | 1183 | 1161 | 1139
x1 = 0.7115 | 1183 | 1160 | 1137
x1 = 0.8124 | 1184 | 1161 | 1138
x1 = 0.9073 | 1188 | 1164 | 1141
x1 = 0.9529 | 1191 | 1167 | 1144
x1 = 1 | 1197 | 1174 | 1150

CCC(C)O (stereo not drawn) [butan-2-ol] + CC1CCCC1
[2], x2 = 0
Conditions | speed of sound [m/s]
293.15 K | 1230
298.15 K | 1212
303.15 K | 1194

CCCCO [butan-1-ol]
[1]
Conditions | mass density [kg/m3] | speed of sound [m/s] | viscosity [mPa·s]
293.15 K | 809.5 | 1257 | 2.941
298.15 K | 805.75 | 1240 | 2.571
303.15 K | 801.8 | 1224 | 2.255

CC1CCCC1 [methylcyclopentane]
[1]
Conditions | mass density | speed of sound [m/s] | viscosity [mPa·s]
293.15 K | 746.64 kg/m3 | 1197 | 0.504
298.15 K | 741.94 kg/m3 and 741.9 kg/m3 | 1174 | 0.476
303.15 K | 737.21 kg/m3 | 1150 | 0.45

CC1CCCC1 [methylcyclopentane] + CCCCO
speed of sound [m/s], [2]
Conditions | 293.15 K | 298.15 K | 303.15 K
x1 = 0.0485 | 1250 | 1233 | 1216
x1 = 0.0993 | 1243 | 1226 | 1208
x1 = 0.1973 | 1231 | 1213 | 1194
x1 = 0.3038 | 1219 | 1200 | 1180
x1 = 0.4036 | 1210 | 1190 | 1169
x1 = 0.5055 | 1202 | – | –
x1 = 0.5078 | – | 1181 | 1160
x1 = 0.6152 | 1195 | 1173 | 1151
x1 = 0.7053 | 1191 | 1169 | 1146
x1 = 0.8132 | 1189 | 1166 | 1143
x1 = 0.9096 | 1190 | 1166 | 1143
x1 = 0.9537 | 1191 | 1168 | 1145
x1 = 1 | 1197 | 1174 | 1150

CCCCO [butan-1-ol] + CC1CCCC1
[2], x2 = 0
Conditions | speed of sound [m/s]
293.15 K | 1257
298.15 K | 1240
303.15 K | 1224

CCC(C)O (stereo not drawn) [butan-2-ol]
[1]
Conditions | mass density [kg/m3] | speed of sound [m/s] | viscosity [mPa·s]
293.15 K | 806.84 | 1230 | 3.623
298.15 K | 802.72 | 1212 | 2.995
303.15 K | 798.51 | 1194 | 2.493
